The values that follow come from patent US20140228302A1, “COMPOUNDS, COMPOSITIONS AND METHODS FOR TREATING OR PREVENTING HYPOXIC OR ISCHEMIC INJURY” (FRED HUTCHINSON CANCER RESEARCH CENTER, priority 2010, published 2014).

Data set [1] is described as follows: Comparative solubility data (Table 1). It is filed as physicochemical. The text has this:
(§1) This allows formulation in aqueous solution at high concentration, which is important for preparing parenteral dosage forms.

Data set [2] is described as follows: Comparative vehicle data (Table 2). It is filed as physicochemical.
Excerpt: as §1

A further data set has as its system dog. As to conditions: cited from earlier work.
The subject of the next data set is rat. Conditions: cited from earlier work.
For a further data set, the system named is mouse. As to conditions: cited from earlier work.
The subject of a further data set is mammals. As to conditions: many mammals; cited from earlier work.
Data set [3] can be described thus: Generation of biologically available sulfide in whole rat blood and inhibition by NAEM. It is filed as in vitro ADME. Here is the method:
The chemical nature of biologically available sulfide in blood was probed with the thiol-reactive reagent N-aminoethyl-maleimide (NAEM) which binds to free thiols and perthiols on proteins and blocks them from participating further in thiol-mediated chemical reactions. Biologically available sulfide was generated in blood by adding 1.3 mM bis-N-acetyl-cystine-trisulfide to 2 mL of whole rat blood. Biologically available sulfide was measured by derivatization with mono-bromo-bimane and levels of bis-N-acetyl-cystine-trisulfide in blood were followed by LC/MS/MS.

Data set [4] is described as follows: Free sulfide in blood measured with sulfide-specific electrode in vena cava. It is filed as in vivo, CD rats. Conditions: rat, 20 mg/kg IV over 1 min, monitored 30 min. The text has this:
Male CD rats (350-450 g, Charles River Laboratories) were anesthetized by IV pentobarbital injection and the right jugular vein carefully exposed and dissected away from the surrounding tissue. An amperometric hydrogen sulfide sensor (World Precision Instruments, Sarasota, Fla., Cat. #ISO-H2S-2) was inserted into the jugular and advanced into the vena cava. Sensor current was monitored using a Powerlab 8/30 (ADInstruments, Colorado Springs, Colo.). Once a stable baseline current was attained, the animals received either vehicle (pH matched saline) or bis-N-acetyl-cystine-trisulfide (20 mg/kg) administered over 1 min via a left femoral vein catheter, and sensor current was monitored over 30 min. Changes in current were calibrated against an IK-1001 standard curve generated with the sensor in deoxygenated 50 mM HEPES, 150 mM NaCl, 1 mM DTPA at 37° C. and pH 7.4.

Data set [5] is described as follows: Pharmacokinetics of biologically available blood sulfide and plasma thiosulfate after intravenous administration. It is filed as in vivo, Sprague Dawley rats. As to conditions: rat, IV bolus 16 or 32 mg/kg. On the procedure: Pharmacokinetic experiments were conducted with groups of two to four animals consisting of 9-10 week old, male Sprague Dawley rats, 276-300 grams (Charles River Laboratories, Wilmington, Mass.) with a jugular vein catheter and a femoral vein catheter. Animals were allowed to acclimate in a temperature and humidity controlled environment for 1-3 days prior to the commencement of experimental procedures. Food and water were provided ad libitum.
A baseline blood sample (˜0.4 mL) was collected from each rat through the jugular vein cannula into a heparin-coated syringe (1 mL volume) fitted with a 23G Luer stub adapter. After sampling, the blood volume was replenished by slowly injecting 0.4 mL of a solution of 50 u/mL heparin in saline through the jugular vein cannula.

The nature of data set [6]: Stability of the dosing solution. It is filed as physicochemical. Conditions: 30 mg/mL dosing solution. On the procedure: In one more exemplary embodiment of the methods of making the pharmaceutical compositions of the invention, a dosing solution of bis-N-acetyl-cystine-trisulfide at 30 mg/mL is prepared by weighing the desired amount of solid bis-N-acetyl-cystine-trisulfide into a clear glass vial and chilling the vial to −20° C. The solvent is prepared by chilling a suitable amount of a mixture of 1 volumes of 0.5N NaOH in saline and 2 volumes of above vehicle solution to between 0° C. and 4° C. One mL of this solvent is added to the vial per 30 mg of bis-N-acetyl-cystine-trisulfide contained and the resulting suspension mixed immediately until the solid is fully dissolved. This dosing solution of bis-N-acetyl-cystine-trisulfide is stable for at least 1.5 hours at room temperature and for at least 24 hours when frozen at −20° C. The dosing solution is warmed to room temperature prior to intravenous injection.
Method: Vehicle solution was prepared by mixing 1 volume of solution B, 4 volumes of solution A, and 36 volumes of saline. The pH of the resulting vehicle solution is about 6. To prepare a bis-N-acetyl-cysteine-trisulfide dosing solution at a concentration of 30 mg/ml and about pH 6, the appropriate amount of bis-N-acetyl-cystine-trisulfide was weighed into a clear glass vial and cooled to −20° C. Solutions B and A were mixed at a 1:2 volume ratio, vortexed, and cooled to 4° C. on ice. […]

The nature of data set [7]: Maximum tolerated dose, intravenous injection. Conditions: mouse, in vivo; mice, intravenous injections. The text has this:
The absence of free sulfide is reflected in the low toxicity of the sulfide-releasing compounds.

In data set [8] the test system is livers of mice, ischemia/reperfusion (I/R) injury. As to the kind of experiment: Protection from ischemia/reperfusion-induced liver damage. It is filed as in vivo, C57BL/6 mice. As to conditions: last 5 min of 45 min occlusion, ALT five hours after reperfusion. Here is the method: C57BL/6 mice were anesthetized with a ketamine/xylazine combination given via intraperitoneal injection. A midline laparotomy was performed to expose the viscera and the stomach and intestines were moved laterally to allow for unimpeded visualization of the liver. A micoaneurysm clip was applied to the hepatic artery and portal vein to create a partial liver ischemia encompassing the medial and left lateral lobes (approximately 70% of the liver). […] The aneurysm clips were removed at 45 minutes to restore hepatic blood flow which was confirmed visually. The abdominal incision was closed using wound clips and animals were recovered in a warmed chamber with 100% oxygen. Five hours after reperfusion, blood was collected by cardiac puncture to measure serum alanine aminotransferase (ALT).

Data set [9] deals with livers of mice, injury by dGal/LPS. In words: Protection from endotoxin (dGal/LPS)-induced liver damage. It is filed as in vivo, C57BL/6 mice. On the procedure:
Male C57BL/6 mice, (22 to 24 g, Charles River Laboratories) were acclimated in a temperature and humidity controlled environment for 1-3 days prior to commencement of the experimental procedures. All cages were placed on water heating pads set at 30° C. Liver injury was caused by injecting mice intraperitoneally with 800 mg/kg d-Galactosamine (dGal), followed 30 min later by 100 μg/kg lipopolysaccharide (LPS) (FIG. 4) or with 1000 mg/kg dGal, followed 30 min later by 120 μg/kg LPS (FIG. 5). Bis-N-acetyl-cystine-trisulfide at 20 mg/kg (FIG. 4) or 40 and 60 mg/kg (FIG. 5), or vehicle were injected intraperitoneally 30 min later. Blood was collected by cardiac puncture under isoflurane anesthesia five hours after LPS injection. Serum was prepared and markers of liver injury, alanine aminotransferase (ALT) and aspartate aminotransferase (AST) measured.

The mark [10] stands for this setting: 17% HPBCD, aqueous with cosolvent or surfactant or cyclodextrin, read-out: Solubility 17% HPBCD.
Setting [11] is: 20% PEG400, aqueous with cosolvent or surfactant or cyclodextrin, read-out: Solubility 20% PEG400.
[12] abbreviates: water, read-out: Solubility Water.
Where [13] appears, read: rat blood pretreated with 20 mM NAEM for 30 min.

Values after ≈ are worked out from the molar mass of the structure shown. “Also recorded” adds a separate entry of the source. Like-named read-outs stand apart in the source and are kept apart here. Where only a bound is given, the exact number is not on record here.

What is called solubility is how much of the substance goes into solution per volume. Regarding `OCCSSSSCc1ccccc1`, the figures for the solubility in data set [1] (setting [10]), in [1] (setting [11]) and in data set [1] (setting [12]) were more than 6000 µg/mL, 110 µg/mL (≈ 416 µM) and 37 µg/mL (≈ 140 µM), respectively.

Turning to `c1ccc(CCSSSCc2cccnc2)cc1`, the solubility in [1] (setting [11]) is 310 µg/mL (≈ 1060 µM); in [1] (setting [12]), 220 µg/mL (≈ 750 µM).

For the molecule `COC(=O)[C@H](CSSSCc1ccccc1)NC(C)=O`, the solubility was found to be 240 µg/mL (≈ 724 µM) in data set [1] (setting [11]) and 100 µg/mL (≈ 302 µM) in [1] (setting [12]).

On to `OCC(O)CSSSSCc1ccccc1` (stereo not shown), for which the solubility in data set [1] (setting [10]) was found to be 6600 µg/mL (≈ 22400 µM); in data set [1] (setting [11]) it was 230 µg/mL (≈ 781 µM); in data set [1] (setting [12]) it was 150 µg/mL (≈ 509 µM).

`O=C(O)CCSSSCCC(=O)O`: the solubility in data set [1] (aqueous with cosolvent or surfactant or cyclodextrin, 45% HPBCD (stated in the cell of the 17% HPBCD column), read-out: Solubility 45% HPBCD) is more than 20000 µg/mL. Besides, in data set [1] (water), the “Solubility Water” value is “poor”.

On to `CC(=O)N[C@@H](CSSSCCc1ccccc1)C(=O)O`, for which, in data set [1] (setting [10]), the solubility was 18000 µg/mL (≈ 54300 µM). Also, in data set [1] (water), the “Solubility Water” value is listed as “poor”.

In the case of `N[C@@H](CSSSC[C@H](N)C(=O)O)C(=O)O`, the Solubility in words result in [1] (water, 90% PEG400, 45% HPBCD, 45% Captisol, 2% Tween 80, 25% cremophor) was “Not soluble in water, 90% PEG400, 45% HPBCD, 45% Captisol, 2% Tween 80, 25% cremophor”.

`C=CCSSCC=C` [Di-allyl di-sulfide]: the “Preferred Vehicle” value in [2] came out at 40% HPBCD/0.1% citric acid.

Regarding `CC(=O)N[C@@H](CS)C(=O)O` [N-acetyl-cysteine], the “LD50 IV” value is on record as 700 mg/kg with dog, 1,140 mg/kg with rat and 3,800 mg/kg in the data set on mouse. For the same molecule, the “intravenous LD50” value with mammals is listed as not below 300 mg/kg.

Consider `NCCN1C(=O)C=CC1=O` [NAEM, N-aminoethyl-maleimide], for which, in data set [3] (20 mM NAEM, preincubation with rat blood), the “Time until consumed in blood” value is recorded as not above 1 min. Also, in data set [3] (setting [13]), the “Effect on consumption of bis-N-acetyl-cystine-trisulfide” value is listed as “reduced consumption”. Moreover, the “Effect on production of biologically available sulfide” value was “almost completely blocked” in data set [3] (setting [13]) and “reduces the generation of biologically available sulfide” in data set [3] (rat blood pretreated with 20 mM NAEM for 30 min, listed as N-aminoethyl-maleimide (NAEM)).

The term MTD denotes the largest dose that counted as tolerated. A lower MTD goes with poorer tolerability. With `CC(=O)N[C@@H](CSSSC[C@H](NC(C)=O)C(=O)O)C(=O)O` [bis-N-acetyl-cystine-trisulfide, (R,R′)-3,3′-trithiobis-2-acetamidopropanoic acid], the “Free sulfide in blood” value in data set [4] is reported as “No free sulfide was detectable; also recorded: does not lead to any measurable increase”. Further, in data set [5] (ion chromatography), the Plasma thiosulfate entry is “paralleled blood levels of biologically available sulfide; also recorded: elevation of plasma thiosulfate”. The “Biologically available sulfide in blood” value in data set [5] (mono-bromo-bimane derivatization) is on record as “dose-dependent elevation”. Also, the “Stability of dosing solution at room temperature” value in data set [6] (about pH 6, room temperature) is on record as “at least 1.5 hours”. In data set [6] (frozen at −20° C.), the “Stability of dosing solution frozen” value is recorded as “at least 24 hours”. The “Preferred Vehicle” value in [2] is given as “aqueous”. Further, the “Water solubility compared to other polysulfides” value in data set [1] (water) was “unexpectedly high water solubility”. The same molecule yielded an MTD in data set [7] of approximately 500 mg/kg. The “Time until consumed in blood” value in data set [3] (1.3 mM in 2 mL whole rat blood, LC/MS/MS) is not above 5 min. Also, the “Generation of biologically available sulfide in blood” value in [3] (1.3 mM in whole rat blood, mono-bromo-bimane derivatization) is given as “generating biologically available sulfide”. Besides, in [8] (intravenous bolus 5, 20 or 60 mg/kg), the “Liver ischemia/reperfusion injury (ALT)” value is “protection of the livers; also recorded: protected the liver from ischemia/reperfusion injury”. For the same molecule, the “Liver injury (serum ALT and AST)” value in data set [9] (20 mg/kg IP bolus 30 min after LPS, 800 mg/kg dGal, 100 μg/kg LPS, vs vehicle) is “reduced liver injury”. For the same molecule, the “Endotoxin-induced liver injury (ALT, AST)” value in [9] (20, 40 and 60 mg/kg IP, blood five hours after LPS (FIGS. 4 and 5)) is “protected from endotoxin-induced liver injury”. The “Liver injury (serum ALT)” value in data set [9] (40 and 60 mg/kg IP bolus 30 min after LPS, 1000 mg/kg dGal, 120 μg/kg LPS, vs vehicle) is given as “reduced liver injury”.

For `CS(=O)(=O)N[C@@H](CSSSC[C@H](NS(C)(=O)=O)C(=O)O)C(=O)O` [bis-N-methylsulfonyl-cystine-trisulfide, (R,R′)-3,3′-trithiobis-2-(methylsulfonylamido)propanoic acid], in [1] (water), the “Water solubility compared to other polysulfides” value was “unexpectedly high water solubility”. Further, the “Liver ischemia/reperfusion injury (ALT)” value in data set [8] (intravenous bolus 2, 5 or 20 mg/kg) was “protected the liver from ischemia/reperfusion injury”; in data set [8] (intravenous bolus 2, 5 or 20 mg/kg, listed as bis-N-methylsulfonamide-cystine-trisulfide) it was “protection of the livers”.

Consider `CC(=O)N[C@@H](CSSSC[C@H](NC(C)=O)C(=O)O)C(=O)O` [drawing 49], for which, in [1] (setting [12]), the solubility was more than 40000 µg/mL.

Turning to `CS(=O)(=O)N[C@@H](CSSSC[C@H](NS(C)(=O)=O)C(=O)O)C(=O)O` [drawing 50], in [1] (setting [12]), the solubility is more than 80000 µg/mL.
